pIC50: −log10 of the molar value. Some results are limits rather than exact numbers.

The assay relates to HEK-Blue TGFβ cell. The assay is described as follows: HEK-Blue TGFβ cellular reporter gene assay (SEAP readout). In kind it is cell-based. To be noted: HEK-Blue TGFβ cells stimulated with TGF-β, 22-23 h incubation, SEAP read at 630 nm. How it is done:
HEK-Blue TGFβ Cellular Reporter Gene Assay:
HEK-Blue TGFβ cell was purchased from Invivogen. Cell suspension of 2.5×10^5 cells/ml was prepared using Test Medium (DMEM containing 0.5% v/v heat-inactivated FBS). TGF-β working solution (6 ng/ml) was obtained through diluting TGF-β stock solution (10 μg/ml) by Test Medium before use. Eight different concentrations of all compounds were obtained by 3× gradient dilution method using TGF-β working solution. Add 100 μl of Test Medium (Vehicle) or test article or TGF-β working solution per well of a flat-bottom 96-well plate. Add 100 μl of HEK-Blue TGF-β cell suspension per well. Incubate the plate at 37° C. in a CO2 incubator for 22-23 h. Add 150 μl of resuspended QUANTI-Blue per well of a new flat-bottom 96-well plate. Add 30 μl of induced HEK-Blue TGF-β cells supernatant. Avoid pipetting at the bottom of wells. Incubate the plate at 37° C. incubator for 30-40 min. Determine secreted embryonic alkaline phosphatase (SEAP) levels using a spectrophotometer at 630 nm.
The inhibition was calculated using the equation: […]
A general note: A reporter such as luciferase makes a cellular process visible.
What is called pIC50 is −log10 of the IC50, conventionally taken in molar units. Regarding `Cc1cc(Oc2ccnc(Nc3ccc(CCC(=O)O)cc3)c2)c(-c2ccccn2)nc1C` [Example 2], the pIC50 is 6.64.
Then `Cc1cc(Oc2ccnc(Nc3cncc(CCC(=O)O)c3)c2)c(-c2ccccn2)nc1C` [Example 3], with below 5.00; and `Cc1cc(Oc2ccnc(Nc3ccc(F)c(CCC(=O)O)c3)c2)c(-c2ccccn2)nc1C` [Example 4], with 6.70.
`Cc1cc(Oc2ccnc(Nc3ccc(Cl)c(CCC(=O)O)c3)c2)c(-c2ccccn2)nc1C` [Example 5] showed a pIC50 of 6.82.
For the molecule `Cc1cc(Oc2ccnc(Nc3cc(CCC(=O)O)ccc3F)c2)c(-c2ccccn2)nc1C` [Example 6], the pIC50 is 6.80.
Regarding `Cc1cc(Oc2ccnc(Nc3cccc(CCC(=O)O)n3)c2)c(-c2ccccn2)nc1C` [Example 7], the pIC50 is 6.77.
Take `Cc1cc(Oc2ccnc(Nc3cc(CCC(=O)O)ccn3)c2)c(-c2ccccn2)nc1C` [Example 8]: the pIC50 was 6.23.
Take `Cc1cc(Oc2ccnc(Nc3ccnc(CCC(=O)O)c3)c2)c(-c2ccccn2)nc1C` [Example 9]: the pIC50 was below 5.00.
`Cc1cc(Oc2ccnc(Nc3cccc(CCC(=O)O)c3F)c2)c(-c2ccccn2)nc1C` [Example 10] gave a pIC50 of 6.66.
Molecule `Cc1cc(Oc2ccnc(Nc3cccc(-c4nnn[nH]4)c3)c2)c(-c2ccccn2)nc1C` [Example 13] had a pIC50 of 5.97.
In turn, `Cc1cc(Oc2ccnc(Nc3ccc(-c4nnn[nH]4)cc3)c2)c(-c2ccccn2)nc1C` [Example 14] showed a pIC50 below 5.00.
Molecule `Cc1cc(Oc2ccnc(Nc3ccc(Cc4nnn[nH]4)cc3)c2)c(-c2ccccn2)nc1C` [Example 15] had a pIC50 of 5.74.
`Cc1cc(Oc2ccnc(Nc3cccc(C(C)(C)c4nnn[nH]4)c3)c2)c(-c2ccccn2)nc1C` [Example 18] gave a pIC50 of 6.74.
As for `Cc1cc(Oc2ccnc(Nc3cc(CCc4nnn[nH]4)ccc3F)c2)c(-c2ccccn2)nc1C` [Example 19], the pIC50 was 6.80.
Next, `Cc1cc(Oc2ccnc(Nc3ccc(Cl)c(CCc4nnn[nH]4)c3)c2)c(-c2ccccn2)nc1C` [Example 20]: 6.92; `Cc1cc(Oc2ccnc(Nc3ccc(F)c(CCc4nnn[nH]4)c3)c2)c(-c2ccccn2)nc1C` [Example 21]: 6.80; `Cc1cc(Oc2ccnc(Nc3ccc(C(F)(F)F)c(CCc4nn[nH]n4)c3)c2)c(-c2ccccn2)nc1C` [Example 22]: 6.64.
`Cc1cc(Oc2ccnc(Nc3cncc(CCc4nnn[nH]4)c3)c2)c(-c2ccccn2)nc1C` [Example 23] had a pIC50 below 5.00.
As for `Cc1cc(Oc2ccnc(Nc3cc(CCc4nnn[nH]4)ccn3)c2)c(-c2ccccn2)nc1C` [Example 24], the pIC50 was 5.34.
The molecule `Cc1cc(Oc2ccnc(Nc3cccc(CCc4nnn[nH]4)c3F)c2)c(-c2ccccn2)nc1C` [Example 25] gave a pIC50 of 6.19.
Regarding `Cc1cc(Oc2ccnc(Nc3cccc(CCc4nnn[nH]4)n3)c2)c(-c2ccccn2)nc1C` [Example 26], the pIC50 was 6.46. Against the preceding molecule, the pIC50 is 0.27 log units higher.
Molecule `Cc1cc(Oc2ccnc(Nc3cccc(CCc4nnn[nH]4)c3C)c2)c(-c2ccccn2)nc1C` [Example 27] showed a pIC50 of 6.60. The pIC50 values of the last two molecules are within 0.2 log units of each other.
On to `Cc1ccc(Nc2cc(Oc3cc(C)c(C)nc3-c3ccccn3)ccn2)cc1CCc1nnn[nH]1` [Example 28], for which the pIC50 was 7.30. This pIC50 is 0.70 log units higher than that of the molecule before.
Then `Cc1cc(CCc2nnn[nH]2)cc(Nc2cc(Oc3cc(C)c(C)nc3-c3ccccn3)ccn2)c1` [Example 29], with 7.42; and `Cc1ccc(CCc2nnn[nH]2)cc1Nc1cc(Oc2cc(C)c(C)nc2-c2ccccn2)ccn1` [Example 30], with 6.96.
`Cc1cc(Oc2ccnc(Nc3cnn(CCc4nn[nH]n4)c3)c2)c(-c2ccccn2)nc1C` [Example 31]: the pIC50 was below 5.00.
`Cc1cc(Oc2ccnc(Nc3ccn(CCc4nn[nH]n4)n3)c2)c(-c2ccccn2)nc1C` [Example 32] gave a negative-log IC50 (pIC50) of 5.43.
In the case of `Cc1cc(Oc2ccnc(Nc3cccc(OCc4nnn[nH]4)c3)c2)c(-c2ccccn2)nc1C` [Example 33], the pIC50 was 5.14. Compared with the last molecule, the pIC50 is 0.29 log units lower.
Molecule `Cc1cc(Oc2ccnc(Nc3cccc(Cc4nnn(CC(=O)O)n4)c3)c2)c(-c2ccccn2)nc1C` [Example 34A, 2-(5-(3-((4-((5,6-dimethyl-[2,2′-bipyridin]-3-yl)oxy)pyridin-2-yl)amino)benzyl)-2H-tetrazol-2-yl)acetic acid] had a pIC50 of 4.90. This pIC50 lies 0.24 log units lower than the previous one.
In the case of `Cc1cc(Oc2ccnc(Nc3cccc(Cc4nnnn4CC(=O)O)c3)c2)c(-c2ccccn2)nc1C` [Example 34B, 2-(5-(3-((4-((5,6-dimethyl-[2,2′-bipyridin]-3-yl)oxy)pyridin-2-yl)amino)benzyl)-1H-tetrazol-1-yl)acetic acid], the pIC50 is below 5.00.
For `Cc1cc(Oc2ccnc(Nc3ccc(Cc4nnn(CC(=O)O)n4)cc3)c2)c(-c2ccccn2)nc1C` [Example 35A], the pIC50 is below 5.00.
Then `Cc1cc(Oc2ccnc(Nc3ccc(Cc4nnnn4CC(=O)O)cc3)c2)c(-c2ccccn2)nc1C` [Example 35B], with below 5.00.
As for `Cc1ccc(Oc2ccnc(Nc3ccc(F)c(CCC(=O)O)c3)c2)c(C)n1` [Example 36, 3-(5-((4-((2,6-dimethylpyridin-3-yl)oxy)pyridin-2-yl)amino)-2-fluorophenyl)propanoic acid], the pIC50 was 6.74.
On to `Cc1ccc(Oc2ccnc(Nc3cccc(CCC(=O)O)n3)c2)c(C)n1` [Example 37], for which the pIC50 is 6.70. The pIC50 values of the last two molecules are within 0.2 log units of each other.
In turn, `Cc1ccc(Oc2ccnc(Nc3cncc(CCC(=O)O)c3)c2)c(C)n1` [Example 38] gave a pIC50 below 5.00.
`Cc1ccc(Oc2ccnc(Nc3cc(CCC(=O)O)ccc3F)c2)c(C)n1` [Example 39] had a pIC50 of 6.59.
For the molecule `Cc1ccc(Oc2ccnc(Nc3cccc(CCC(=O)O)c3F)c2)c(C)n1` [Example 40], the pIC50 was 6.66. This pIC50 and that of the molecule before are within 0.2 log units of each other.
Then `Cc1ccc(Oc2ccnc(Nc3ccc(Cl)c(CCC(=O)O)c3)c2)c(C)n1` [Example 41], with 7.00; and `Cc1ccc(Oc2ccnc(Nc3cc(CCC(=O)O)ccn3)c2)c(C)n1` [Example 42], with 6.85.
Molecule `Cc1ccc(Oc2ccnc(Nc3cccc(CCC(=O)O)c3)c2)c(C#N)n1` [Example 43] had a pIC50 of 5.42.
Regarding `Cc1ccc(Oc2ccnc(Nc3cc(CCc4nn[nH]n4)ccc3F)c2)c(C)n1` [Example 45], the pIC50 was 6.38.
Then `Cc1ccc(Oc2ccnc(Nc3cccc(CCc4nn[nH]n4)c3F)c2)c(C)n1` [Example 46], with 6.28; and `Cc1ccc(Oc2ccnc(Nc3cccc(CCc4nn[nH]n4)n3)c2)c(C)n1` [Example 47], with 6.51; and `Cc1ccc(Oc2ccnc(Nc3cc(CCc4nn[nH]n4)ccn3)c2)c(C)n1` [Example 48], with 5.52.
The molecule `Cc1ccc(Oc2ccnc(Nc3cncc(CCc4nn[nH]n4)c3)c2)c(C)n1` [Example 49] showed a pIC50 below 5.00.
Then `Cc1ccc(Oc2ccnc(Nc3ccc(Cl)c(CCc4nn[nH]n4)c3)c2)c(C)n1` [Example 50], with 6.20; and `Cc1ccc(Oc2ccnc(Nc3ccc(F)c(CCc4nn[nH]n4)c3)c2)c(C)n1` [Example 51], with 6.57; and `Cc1ccc(Oc2ccnc(Nc3cccc(CCc4nn[nH]n4)c3)c2)c(-c2cccnc2)n1` [Example 53], with 5.53.
`Cc1ccc(Oc2ccnc(Nc3cccc(CCc4nn[nH]n4)c3)c2)c(-c2ccncc2)n1` [Example 54] showed a pIC50 of 5.19.
For `Cc1ccc(Oc2ccnc(Nc3cccc(CCc4nn[nH]n4)c3)c2)c(-c2ccccn2)n1` [Example 55], the pIC50 is 6.70. This pIC50 lies 1.51 log units higher than the previous one.
In turn, `CCc1nc(C)ccc1Oc1ccnc(Nc2cccc(CCc3nn[nH]n3)c2)c1` [Example 56] showed a pIC50 of 6.80.
The molecule `CCc1ccc(Oc2ccnc(Nc3cccc(CCc4nn[nH]n4)c3)c2)c(C)n1` [Example 57] showed a pIC50 of 6.89.
Next, `Cc1ccc(Oc2ccnc(Nc3cccc(CCc4nn[nH]n4)c3)c2)c(C(F)(F)F)n1` [Example 58]: 6.82; `Cc1nc2ccccc2cc1Oc1ccnc(Nc2cccc(CCc3nn[nH]n3)c2)c1` [Example 59]: 6.35.
The molecule `Cc1ccc(Oc2ccnc(Nc3cccc(C(C)(C)c4nnn[nH]4)c3)c2)c(-c2ccccc2)n1` [Example 60] gave a pIC50 of 7.10.
Then `Cc1nc(-c2ccccc2)ccc1Oc1ccnc(Nc2cccc(C(C)(C)c3nn[nH]n3)c2)c1` [Example 61], with 6.72; and `Cc1ccc(Oc2ccnc(Nc3cccc(CCc4nn[nH]n4)c3)c2)c(-c2cnn(C)c2)n1` [Example 62], with 5.68.
In the case of `Cc1cccc(-c2nc(C)ccc2Oc2ccnc(Nc3cccc(CCc4nn[nH]n4)c3)c2)n1` [Example 63], the pIC50 was 6.14.
Then `Cc1ccc(Oc2ccnc(Nc3cccc(CCc4nn[nH]n4)c3)c2)c(-c2ncccc2C)n1` [Example 64], with 5.59; and `Cc1ccc(Oc2ccnc(Nc3ccc(C(F)(F)F)c(CCc4nn[nH]n4)c3)c2)c(-c2ccccn2)n1` [Example 65], with 6.28.
With `Cc1ccc(Oc2ccnc(Nc3cccc(CCC(=O)O)c3)c2)c(-c2ccccc2)n1` [Example 66, 3-(3-((4-((6-methyl-2-phenylpyridin-3-yl)oxy)pyridin-2-yl)amino)phenyl)propanoic acid], the pIC50 was 7.62.
`c1cc(CCc2nn[nH]n2)cc(Nc2cc(Oc3cn(C4CC4)nc3C3CCOCC3)ccn2)c1` [Example 67, N-(3-(2-(2H-tetrazol-5-yl)ethyl)phenyl)-4-((1-cyclopropyl-3-(tetrahydro-2H-pyran-4-yl)-1H-pyrazol-4-yl)oxy)pyridin-2-amine] showed a pIC50 of 5.58. This pIC50 lies 2.04 log units lower than the previous one.

The values above are taken from patent US20220054465A1, “(PYRIDIN-2-YL)AMINE DERIVATIVES AS TGF-BETA R1 (ALK5) INHIBITORS FOR THE TREATMENT OF CANCER” (Nexys Therapeutics, Inc., priority 2018, published 2022).
